Data taken from patent US20160220569A1, “CDK4/6 Inhibitor Dosage Formulations For The Protection Of Hematopoietic Stem And Progenitor Cells During Chemotherapy” (G1 Therapeutics, Inc., priority 2015, published 2016).
Values joined by “and” are separate entries in the source; they are usually repeats but may differ in a detail not shown here. Identical values can stand only once. Like-named read-outs stand apart in the source and are kept apart here.

Test: Topotecan PK following Compound 1 infusion
Type: in vivo, human
Description: Blood samples were obtained prior to dosing, at the end of the 30-minute infusion (EOI), and at 0.5, 1, 1.5, 2, 2.5, 4, 6, 8, and 24 hours after the end of infusion. Analysis of plasma concentration versus time data for calculation of standard pharmacokinetic (PK) parameters following intravenous infusion administration was conducted using Phoenix WinNonlin version 6.3 using a nominal infusion duration and scheduled blood sampling times. In Cohort 2 there were 3 subjects who received 1.25 mg/m^2 of topotecan once daily on Days 1 to 5. In Cohort 3 there were 4 subjects who received 0.75 mg/m^2 of topotecan once daily on Days 1 to 5.

[1] = Topotecan 0.75 mg/m^2 (Cohort 3) with Compound 1 200 mg/m^2, Day 1, Max
[2] = Topotecan 0.75 mg/m^2 (Cohort 3) with Compound 1 200 mg/m^2, Day 1, Min
[3] = Topotecan 0.75 mg/m^2 (Cohort 3) with Compound 1 200 mg/m^2, Day 1, individual subjects, monohydrochloride
[4] = Topotecan 0.75 mg/m^2 (Cohort 3) with Compound 1 200 mg/m^2, Day 4, Max
[5] = Topotecan 0.75 mg/m^2 (Cohort 3) with Compound 1 200 mg/m^2, Day 4, Min
[6] = Topotecan 0.75 mg/m^2 (Cohort 3) with Compound 1 200 mg/m^2, Day 4, individual subjects, monohydrochloride
[7] = Topotecan 1.25 mg/m^2 (Cohort 2) with Compound 1 200 mg/m^2, Day 1, Max
[8] = Topotecan 1.25 mg/m^2 (Cohort 2) with Compound 1 200 mg/m^2, Day 1, Min
[9] = Topotecan 1.25 mg/m^2 (Cohort 2) with Compound 1 200 mg/m^2, Day 1, individual subjects, monohydrochloride
[10] = Topotecan 1.25 mg/m^2 (Cohort 2) with Compound 1 200 mg/m^2, Day 4, Max
[11] = Topotecan 1.25 mg/m^2 (Cohort 2) with Compound 1 200 mg/m^2, Day 4, Min
[12] = Topotecan 1.25 mg/m^2 (Cohort 2) with Compound 1 200 mg/m^2, Day 4, individual subjects, monohydrochloride
[13] = Topotecan […]^2 (Cohort 1) with Compound 1 200 mg/m^2, Day 1, Max
[14] = Topotecan […]^2 (Cohort 1) with Compound 1 200 mg/m^2, Day 1, Min
[15] = Topotecan […]^2 (Cohort 1) with Compound 1 200 mg/m^2, Day 1, individual subjects, monohydrochloride
[16] = Topotecan […]^2 (Cohort 1) with Compound 1 200 mg/m^2, Day 4, Max
[17] = Topotecan […]^2 (Cohort 1) with Compound 1 200 mg/m^2, Day 4, Min

CC[C@@]1(O)C(=O)OCc2c1cc1n(c2=O)Cc2cc3c(CN(C)C)c(O)ccc3nc2-1.Cl [topotecan, (S)-10-[(dimethylamino)methyl]-4-ethyl-4,9-dihydroxy-1H-pyrano[3′,4′:6,7]indolizino[1,2-b]quinoline-3,14(4H,12H)-dione monohydrochloride]
AUC24.5 [1]: 118 ng·h/mL | AUCx5 [1]: 78600 nM·min | Cmax [1]: 38.5 ng/mL | t½ [1]: 4.70 h | AUCinf (Topotecan 0.75 mg/m^2 (Cohort 3) with Compound 1 200 mg/m^2, Day 1, Max, monohydrochloride): 120 h*ng/mL and 15700 min*nM | AUC24.5 [2]: 75.0 ng·h/mL | AUCx5 [2]: 49700 nM·min | Cmax [2]: 17.9 ng/mL | t½ [2]: 4.04 h | AUCinf (Topotecan 0.75 mg/m^2 (Cohort 3) with Compound 1 200 mg/m^2, Day 1, Min, monohydrochloride): 75.9 h*ng/mL and 9950 min*nM | AUC24.5 [3]: 75.0 ng·h/mL and 118 ng·h/mL and 94.7 ng·h/mL | AUCinf [3]: 75.9 h*ng/mL and 9950 min*nM and 120 h*ng/mL and 15700 min*nM and 96.8 h*ng/mL and 12700 min*nM | AUCx5 [3]: 49700 nM·min and 78600 nM·min and 63400 nM·min | Cmax [3]: 20.8 ng/mL and 17.9 ng/mL and 38.5 ng/mL and 32.0 ng/mL | t½ [3]: 4.04 h and 4.27 h and 4.70 h | Cmax [4]: 30.7 ng/mL | t½ [4]: 5.07 h | AUCτ (Topotecan 0.75 mg/m^2 (Cohort 3) with Compound 1 200 mg/m^2, Day 4, Max, monohydrochloride): 112 h*ng/mL and 14700 min*nM | Cmax [5]: 18.4 ng/mL | t½ [5]: 4.63 h | AUCτ (Topotecan 0.75 mg/m^2 (Cohort 3) with Compound 1 200 mg/m^2, Day 4, Min, monohydrochloride): 74.4 h*ng/mL and 9740 min*nM | AUCτ [6]: 74.4 h*ng/mL and 9740 min*nM and 99.7 h*ng/mL and 13100 min*nM and 112 h*ng/mL and 14700 min*nM | Cmax [6]: 18.4 ng/mL and 30.7 ng/mL and 22.6 ng/mL | t½ [6]: 5.07 h and 4.68 h and 4.73 h | AUC24.5 [7]: 247 ng·h/mL | AUCx5 [7]: 166000 nM·min | Cmax [7]: 94.1 ng/mL | t½ [7]: 5.09 h | AUCinf (Topotecan 1.25 mg/m^2 (Cohort 2) with Compound 1 200 mg/m^2, Day 1, Max, monohydrochloride): 254 h*ng/mL and 33300 min*nM | AUC24.5 [8]: 120 ng·h/mL | AUCx5 [8]: 80400 nM·min | Cmax [8]: 39.3 ng/mL | t½ [8]: 4.78 h | AUCinf (Topotecan 1.25 mg/m^2 (Cohort 2) with Compound 1 200 mg/m^2, Day 1, Min, monohydrochloride): 123 h*ng/mL and 16100 min*nM | AUC24.5 [9]: 247 ng·h/mL and 120 ng·h/mL | AUCx5 [9]: 106000 nM·min and 166000 nM·min and 80400 nM·min | Cmax [9]: 94.1 ng/mL and 39.3 ng/mL | t½ [9]: 5.09 h and 4.92 h | Cmax [10]: 104 ng/mL | t½ [10]: 5.97 h | AUCτ (Topotecan 1.25 mg/m^2 (Cohort 2) with Compound 1 200 mg/m^2, Day 4, Max, monohydrochloride): 231 h*ng/mL and 30300 min*nM | Cmax [11]: 33.1 ng/mL | t½ [11]: 4.98 h | AUCτ (Topotecan 1.25 mg/m^2 (Cohort 2) with Compound 1 200 mg/m^2, Day 4, Min, monohydrochloride): 124 h*ng/mL and 16300 min*nM | AUCτ [12]: 231 h*ng/mL and 30300 min*nM and 124 h*ng/mL and 16300 min*nM | Cmax [12]: 104 ng/mL and 33.1 ng/mL | t½ [12]: 5.97 h and 4.98 h | AUC24.5 [13]: 169 ng·h/mL | AUCx5 [13]: 112000 nM·min | Cmax [13]: 98.8 ng/mL | t½ [13]: 4.56 h | AUCx5 [14]: 86600 nM·min | Cmax [14]: 40.2 ng/mL | t½ [14]: 4.11 h | AUCinf (Topotecan […]^2 (Cohort 1) with Compound 1 200 mg/m^2, Day 1, Min, monohydrochloride): 17300 nM·min | AUC24.5 [15]: 169 ng·h/mL | AUCx5 [15]: 112000 nM·min | t½ [15]: 4.11 h | Cmax [16]: 122 ng/mL | t½ [16]: 5.11 h | Cmax [17]: 56.5 ng/mL | t½ [17]: 4.64 h | AUCτ (Topotecan […]^2 (Cohort 1) with Compound 1 200 mg/m^2, Day 4, Min, monohydrochloride): 18800 nM·min | t½ (Topotecan […]^2 (Cohort 1) with Compound 1 200 mg/m^2, Day 4, individual subjects, monohydrochloride): 4.64 h | AUC (human, plasma, intravenous, Topotecan 0.75 mg/m^2 (Cohort 3) with Compound 1 200 mg/m^2, Day 1, Mean, read-out: AUC24.5): 92.8 ng·h/mL | AUC(0-inf) (human, plasma, intravenous, Topotecan 0.75 mg/m^2 (Cohort 3) with Compound 1 200 mg/m^2, Day 1, Mean, read-out: AUCinf (converted)): 94.4 ng·h/mL and 0.207 µM·h | AUC (human, plasma, intravenous, Topotecan 0.75 mg/m^2 (Cohort 3) with Compound 1 200 mg/m^2, Day 1, Mean, read-out: AUCx5 (converted)): 1.03 µM·h
